Read-outs that look alike come from different tables or passages of the source. Starred links: 1 amine or outer side, 2 acyl side, 3 side chain; linkers in the order of their positions; H or OH if unused. Positions of bridges follow the written chain, without caps; N, C: chain ends. Non-standard residues stand in square brackets, D forms with d. Residues, ends and D or L forms follow the SMILES beside them. Chains are numbered I, II in the order given. No end group written: not given here. ξ: configuration not given here. *: point of attachment. Succinimide(1-C2H4CO,3-yl) = O=C1CC([*:1])C(=O)N1CCC(=O)[*:2]; Biotin = O=C1N[C@H]2[C@H](CS[C@H]2CCCCC(=O)*)N1; X2 = O=C1NC2CS[C@@H](CCCCC(=O)*)C2N1; X1 = O=C1NC2CSC(CCCCC(=O)*)C2N1; ξK = NCCCCC(N)C(=O)O; ξC = NC(CS)C(=O)O; ξS = NC(CO)C(=O)O; tBu = CC(C)(C)*
Tests used:
MSSA [1] = test system: MSSA
MSSA [2] = experiment: Minimum bactericidal concentration (MBC) / bactericidal activity against MSSA; type: cell-based, S. aureus; settings: for MBC (μM) (MSSA): 14 h
red blood cell [3] = test system: red blood cell
red blood cell [4] = experiment: Hemolysis (H50); settings: Table 3
in vitro = settings: mouse, serum

In the case of N=C(N)NCCC[C@H](NC(=O)[C@H](CCCNC(=N)N)NC(=O)[C@@H](CCCCN)NC(=O)[C@@H](CCCCN)NC(=O)CNC(=O)[C@H](CO)NC(=O)[C@@H](N)CS)C(=O)N[C@@H](Cc1c[nH]cn1)C(=O)N[C@@H](Cc1c[nH]cn1)C(=O)N[C@H](CCCNC(=N)N)C(=O)N[C@H](CCCNC(=N)N)C(=O)N[C@H](CCCCN)C(=O)N[C@H](CCCCN)C(=O)N[C@@H](CCCNC(=N)N)C(=O)N[C@H](CCCNC(=N)N)C(=O)N[C@@H](Cc1c[nH]cn1)C(=O)N[C@@H](Cc1c[nH]cn1)C(=O)N[C@H](CCCNC(=N)N)C(=O)N[C@H](CCCNC(=N)N)C(=O)N[C@@H](CCCCN)C(=O)O [D1, CSGkkRRHHrrkkRrHHrrK] (H-CSG[dK][dK]RRHH[dR][dR][dK][dK]R[dR]HH[dR][dR]K-OH; N-terminus and C-terminus assumed), the “MIC (μM) (MSSA)” value (MSSA [1]) is reported as less than 50 µM.

With N=C(N)NCCC[C@H](NC(=O)CNC(=O)[C@H](CO)NC(=O)[C@@H](N)CS)C(=O)N[C@H](CCCNC(=N)N)C(=O)N[C@H](CCCCN)C(=O)N[C@H](CCCNC(=N)N)C(=O)N1CCC[C@H]1C(=O)N[C@H](CCCNC(=N)N)C(=O)N[C@H](CCCNC(=N)N)C(=O)N[C@H](CCCCN)C(=O)N[C@H](CCCNC(=N)N)C(=O)N1CCC[C@H]1C(=O)N[C@@H](CCCNC(=N)N)C(=O)N[C@H](CCCNC(=N)N)C(=O)N[C@H](CCCCN)C(=O)N[C@@H](CCCNC(=N)N)C(=O)N1CCC[C@H]1C(=O)N[C@@H](CCCNC(=N)N)C(=O)N[C@H](CCCNC(=N)N)C(=O)O [D2, CSGRrkrPrrkrPRrkRPRr] (H-CSGR[dR][dK][dR]P[dR][dR][dK][dR]PR[dR][dK]RPR[dR]-OH; N-terminus and C-terminus assumed) the “MIC (μM) (MSSA)” value (MSSA [1]) was less than 50 µM.

In the case of “I: Ac-[dR]W[dR][dR]H[dK]H[dF][dK][dR]PH[dR][dK]H[dK][dR]GSC-NH2 / II: Ac-[dR]W[dR][dR]H[dK]H[dF][dK][dR]PH[dR][dK]H[dK][dR]GSC-NH2 / III: [ξK]G[ξS][ξK][ξS]G[ξK](X2)G[ξC](tBu)-NH2 (linker I:20-III:1, II:20-III:N via Succinimide(1-C2H4CO,3-yl)) [Ly-Ly-Sc0]”, the “MBC (μM) (MSSA)” value (MSSA [2]) is reported as 12.5 µM, the “MIC (μM) (MSSA)” value (MSSA [1]) is reported as 12.5 µM and the “MIC (μM) MRSA (USA300)” value (MRSA) is reported as 6.25 µM. The H50 (red blood cell [3]) was greater than 500 µM.

In the case of “I: CSGEMWAIMPPIIKPDNKGH-NH2 / II: CSGR[dR][dK][dR]P[dR][dR][dK][dR]PR[dR][dK]RPR[dR]-NH2 / III: KGSKSGK(Biotin)GC(tBu)-NH2 (linker I:1-III:1, II:1-III:N via Succinimide(1-C2H4CO,3-yl)) [D2-88-SC0]”, the “H50” value (red blood cell [4]) is reported as greater than 500 µM.

For “I: CSGR[dR][dK][dR]P[dR][dR][dK][dR]PR[dR][dK]RPR[dR] / II: CSGR[dR][dK][dR]P[dR][dR][dK][dR]PR[dR][dK]RPR[dR] / III: [ξK]G[ξS][ξK][ξS]G[ξK](X2)G[ξC](tBu)-NH2 (linker I:1-III:1, II:1-III:N via Succinimide(1-C2H4CO,3-yl)) [D2-D2-Sc0, CSGRrkrPrrkrPRrkRPRr-Sc0-CSGRrkrPrrkrPRrkRPRr]”, the “MBC (μM) (MSSA)” value (MSSA [2]) was 5 µM, the “MIC (μM) (MSSA)” value (MSSA [1]) was 5 µM and the “H50” value (red blood cell [3]) was greater than 500 µM.

With “I: CSG[dK][dK]RRHH[dR][dR][dK][dK]R[dR]HH[dR][dR]K / II: CSG[dK][dK]RRHH[dR][dR][dK][dK]R[dR]HH[dR][dR]K / III: [ξK]G[ξS][ξK][ξS]G[ξK](X2)G[ξC](tBu)-NH2 (linker I:1-III:1, II:1-III:N via Succinimide(1-C2H4CO,3-yl)) [D1-D1-Sc0, CSGkkRRHHrrkkRrHHrrK-Sc0-CSGkkRRHHrrkkRrHHrrK]” the “MBC (μM) (MSSA)” value (MSSA [2]) was 5 µM, the “MIC (μM) (MSSA)” value (MSSA [1]) was 10 µM and the “H50” value (red blood cell [3]) was greater than 500 µM.

In the case of “I: D[dR]IFH[dK]MQH[dK]PY[dK]I[dK][dK][dR]GSGGGK[ξK](X1)-NH2 / II: [dR]W[dR][dR]H[dK]HF[dK][dR]PH[dR][dK]H[dK][dR]GSG (amide I:23-II:C) [Synbody (4)]”, the “bactericidal activity against MSSA (in words)” value (MSSA [2]) is reported as “some bactericidal activity against MSSA”, the “MIC, MSSA (n = 3)” value (MSSA [1]) is reported as 2.2 µM and the “MIC, MRSA (n = 2)” value (MRSA) is reported as 3.3 µM. The “H50 = concentration that causes 50% hemolysis” value (red blood cell [3]) was greater than 200 µM and the half-life (in vitro) was roughly 2.17 h.

Reference: patent US9757472B2, “Proteas stabilized antibacterial peptides for S. aureus” (Arizona Board of Regents on Behalf of Arizona State …, priority 2014, dated 2017)
